Source: US9896445B2, “Heterocyclic inhibitors of ERK1 and ERK2 and their use in the treatment of cancer” (Asana Biosciences, LLC, priority 2015, dated 2018)

Columns and labels:
ERK2 = biological target: T1, ERK2 (Homo sapiens, UniProt P28482); test: ERK2 HTRF (biochemical) assay
T1 construct: purchased Jubilant Biosys
Summary of the method: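 Readout was time-resolved FRET between europium anti-phospho-MBP and streptavidin-APC after a 60-min room-temperature kinase step. That step used ERK2 (25 nM in enzyme mix), biotinylated MBP peptide (1 uM) and ATP (24 uM) from the substrate mix, in pH 7.5 Tris buffer.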

ERK1 = biological target: T2, ERK1 (Homo sapiens, UniProt P27361); test: ERK1 HTRF (biochemical) assay
T2 construct: purchased Jubilant Biosys
Protocol: ERK1 and ERK2 HTRF (Biochemical) Assays
These assays employed a homogeneous time resolved fluorescence (HTRF) technique. […] The plate was incubated at room temperature for 60 min with shaking. […] The IC50 values (half maximal inhibitory concentration values) were subsequently determined using a sigmoidal dose-response curve (variable slope) in GraphPad Prism® 5 software.

T2 sequence (P27361 whole entry): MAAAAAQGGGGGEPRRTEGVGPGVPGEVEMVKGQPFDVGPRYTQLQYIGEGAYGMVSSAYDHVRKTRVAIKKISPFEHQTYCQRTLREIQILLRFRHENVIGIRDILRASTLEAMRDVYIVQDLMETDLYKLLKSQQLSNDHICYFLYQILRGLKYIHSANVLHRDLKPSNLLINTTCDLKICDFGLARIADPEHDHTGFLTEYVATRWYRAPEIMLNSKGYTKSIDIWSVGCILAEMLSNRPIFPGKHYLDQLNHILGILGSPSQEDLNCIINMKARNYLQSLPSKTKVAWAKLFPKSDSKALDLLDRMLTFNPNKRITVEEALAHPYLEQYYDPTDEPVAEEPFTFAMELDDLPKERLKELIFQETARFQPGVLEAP
T1 sequence (P28482 whole entry): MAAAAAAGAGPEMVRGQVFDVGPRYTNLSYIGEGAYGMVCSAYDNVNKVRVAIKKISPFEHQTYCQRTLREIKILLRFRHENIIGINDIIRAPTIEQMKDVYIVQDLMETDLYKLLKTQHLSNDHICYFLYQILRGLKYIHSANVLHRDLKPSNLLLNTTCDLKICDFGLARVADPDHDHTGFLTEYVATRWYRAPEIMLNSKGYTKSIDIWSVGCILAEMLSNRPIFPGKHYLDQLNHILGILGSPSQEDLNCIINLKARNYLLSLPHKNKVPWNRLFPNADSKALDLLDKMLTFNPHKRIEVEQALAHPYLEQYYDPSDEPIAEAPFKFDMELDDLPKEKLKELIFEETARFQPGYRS

| Structure (SMILES) | melting point [°C] | IC50 (ERK2; HTRF) [nM] | IC50 (ERK1; HTRF) [nM] | IC50 (ERK2; HTRF biochemical assay) [nM] | IC50 (ERK1; HTRF biochemical assay) [nM] |
| --- | --- | --- | --- | --- | --- |
| Cc1cnc(Nc2ccc3c(c2)OCO3)nc1-n1cc(NC(=O)N[C@H](CO)c2ccccc2)cn1 [Compound 55, (S)-1-(1-(2-(benzo[d][1,3]dioxol-5-ylamino)-5-methylpyrimidin-4-yl)-1H-pyrazol-4-yl)-3-(2-hydroxy-1-phenylethyl)urea] | 208.3 | 50 to 100 | 50 to 100 |  |  |
| O=C(NC(CO)c1cccc(Cl)c1)c1cn(-c2ccnc(Nc3ccccc3)c2)cn1 (centres unmarked) [Compound 77, N-(1-(3-chlorophenyl)-2-hydroxyethyl)-1-(2-(phenylamino)pyridin-4-yl)-1H-imidazole-4-carboxamide] | 130 | ≤ 50 | < 50 |  |  |
| Cc1cnc(Nc2ccc(F)cc2)cc1-n1ccc(C(=O)NC(CN)c2cccc(Cl)c2)c1 (centres unmarked) [Compound 159, N-(2-Amino-1-(3-chlorophenyl)ethyl)-1-(2-((4-fluorophenyl)amino)-5-methylpyridin-4-yl)-1H-pyrrole-3-carboxamide] | 118.1 | ≤ 50 | 50 to 100 |  |  |
| Cc1cnc(Nc2ccc(F)cc2)cc1-n1cnc(C(=O)NC(CN)c2ccccc2)c1 (centres unmarked) [Compound 191, N-(2-amino-1-phenylethyl)-1-(2-((4-fluorophenyl)amino)-5-methylpyridin-4-yl)-1H-imidazole-4-carboxamide] | 154.7 | 50 to 100 | < 50 |  |  |
| Cc1cnc(N[C@H]2CCOC2)nc1-n1cnc(C(=O)N[C@H](CO)c2cccc(Cl)c2)c1 [Compound 192, N-((S)-1-(3-Chlorophenyl)-2-hydroxyethyl)-1-(5-methyl-2-(((S)-tetra-hydrofuran-3-yl)amino)pyrimidin-4-yl)-1H-imidazole-4-carboxamide] | 117 | ≤ 50 | < 50 |  |  |
| Cc1cnc(NC2CCOCC2)nc1-n1cnc(C(=O)NCc2nc(Cl)sc2C)c1 [Example 328, N-((2-chloro-5-methylthiazol-4-yl)methyl)-1-(5-methyl-2-((tetrahydro-2H-pyran-4-yl)amino)-pyrimidin-4-yl)-1H-imidazole-4-carboxamide] |  |  |  | ≤ 50 | < 50 |
| Cc1cnc(Nc2ccc(F)cc2Cl)nc1-n1cnc(C(=O)NCc2cccc(Cl)c2CO)c1 [Example 329, N-(3-chloro-2-(hydroxymethyl)-benzyl)-1-(2-((2-chloro-4-fluoro-phenyl)amino)-5-methylpyrimidin-4-yl)-1H-imidazole-4-carboxamide] |  |  |  | ≤ 50 | < 50 |
| Cc1cnc(NC2CCOCC2)nc1-n1cnc(C(=O)NCc2ccc(Cl)c(CO)c2)c1 [Example 330, N-(4-chloro-3-(hydroxymethyl)-benzyl)-1-(5-methyl-2-((tetrahydro-2H-pyran-4-yl)amino)-pyrimidin-4-yl)-1H-imidazole-4-carboxamide] |  |  |  | ≤ 50 | < 50 |
| Cc1cnc(N[C@H]2CCOC2)nc1-n1cnc(C(=O)NCc2cccc(Cl)c2C)c1 [Example 331, (S)-N-(3-chloro-2-methylbenzyl)-1-(5-methyl-2-((tetrahydrofuran-3-yl)amino)pyrimidin-4-yl)-1H-imidazole-4-carboxamide] |  |  |  | ≤ 50 | < 50 |
| Cc1cnc(Nc2ccc3c(c2)OC(F)(F)O3)nc1-n1cnc(C(=O)NCc2cccc(Cl)c2CO)c1 [Example 332, N-(3-chloro-2-(hydroxymethyl)-benzyl)-1-(2-((2,2-difluorobenzo[d] [1,3]dioxol-5-yl)amino)-5-methylpyrimidin-4-yl)-1H-imidazole-4-carboxamide] |  |  |  | ≤ 50 | < 50 |
| Cc1cnc(NC2CCOCC2)nc1-n1cnc(C(=O)N[C@H](CNCCO)c2cccc(Cl)c2)c1 [Example 333, (S)-N-(1-(3-chlorophenyl)-2-((2-hydroxyethyl)amino)ethyl)-1-(5-methyl-2-((tetrahydro-2H-pyran-4-yl)amino)-pyrimidin-4-yl)-1H-imidazole-4-carboxamide] |  |  |  | ≤ 50 | < 50 |
| Cc1cnc(NC2CCOCC2)nc1-n1cnc(C(=O)NCc2cccc(Cl)c2CCO)c1 [Example 334, N-(3-chloro-2-hydroxyethylbenzyl)-1-(5-methyl-2-((tetrahydro-2H-pyran-4-yl)amino)-pyrimidin-4-yl)-1H-imidazole-4-carboxamide] |  |  |  | ≤ 50 | < 50 |
| Cc1cnc(NC2CCOCC2)nc1-n1cnc(C(=O)NCc2cccc(CO)c2Cl)c1 [Example 335, N-(2-chloro-3-(hydroxymethyl)-benzyl)-1-(5-methyl-2-((tetrahydro-2H-pyran-4-yl)amino)-pyrimidin-4-yl)-1H-imidazole-4-carboxamide] |  |  |  | ≤ 50 | < 50 |
| CC[C@H](CO)Nc1ncc(C)c(-n2cnc(C(=O)NCc3cccc(Cl)c3CO)c2)n1 [Example 336, (R)-N-(3-chloro-2-(hydroxymethyl)-benzyl)-1-(2-((1-hydroxybutan-2-yl)amino)-5-methylpyrimidin-4-yl)-1H-imidazole-4-carboxamide] |  |  |  | ≤ 50 | < 50 |
| Cc1cnc(NC2CCOCC2)nc1-n1cnc(C(=O)N[C@H](CNCC(C)(C)C)c2cccc(Cl)c2)c1 [Example 337, (S)-N-(1-(3-chlorophenyl)-2-(neopentylamino)-ethyl)-1-(5-methyl-2-((tetrahydro-2H-pyran-4-yl)amino)-pyrimidin-4-yl)-1H-imidazole-4-carboxamide] |  |  |  | ≤ 50 | < 50 |
| Cc1cnc(N[C@H]2CCOC2)nc1-n1cnc(C(=O)NCc2cccc(CO)c2Cl)c1 [Example 338, (S)-N-(2-chloro-3-(hydroxymethyl)-benzyl)-1-(5-methyl-2-((tetrahydrofuran-3-yl)amino)-pyrimidin-4-yl)-1H-imidazole-4-carboxamide] |  |  |  | ≤ 50 | < 50 |
| Cc1cnc(NC2CCOCC2)nc1-n1cnc(C(=O)N[C@H](CNCC2CC2)c2cccc(Cl)c2)c1 [Example 339, 1-[5-Methyl-2-(tetrahydro-pyran-4-ylamino)-pyrimidin-4-yl]-1H-imidazole-4-carboxylic acid [(S)-1-(3-chloro-phenyl)-2-(cyclopropylmethyl-amino)-ethyl]-amide] |  |  |  | ≤ 50 | < 50 |
| CC(=O)OCc1c(Cl)cccc1CNC(=O)c1cn(-c2nc(NC3CCOCC3)ncc2C)cn1 [Example 340, 2-chloro-6-((1-(5-methyl-2-((tetrahydro-2H-pyran-4-yl)amino)-pyrimidin-4-yl)-1H-imidazole-4-carboxamido)-methyl)benzyl acetate] |  |  |  | ≤ 50 | < 50 |
| Cc1cnc(NC2CCOCC2)nc1-n1cnc(C(=O)NC(C)(C)c2cccc(Cl)c2CO)c1 [Example 341, N-(2-(3-chloro-2-(hydroxymethyl)-phenyl)propan-2-yl)-1-(5-methyl-2-((tetrahydro-2H-pyran-4-yl)amino)-pyrimidin-4-yl)-1H-imidazole-4-carboxamide] |  |  |  | ≤ 50 | < 50 |
| CC(=O)OCc1c(Cl)cccc1CNC(=O)c1cn(-c2nc(N[C@H]3CCOC3)ncc2C)cn1 [Example 342, (S)-2-chloro-6-((1-(5-methyl-2-((tetrahydrofuran-3-yl)amino)pyrimidin-4-yl)-1H-imidazole-4-carboxamido)-methyl)benzyl acetate] |  |  |  | ≤ 50 | < 50 |
| Cc1cnc(NC2CCOCC2)nc1-n1cnc(C(=O)NCc2ccc(Cl)cc2CO)c1 [Example 343, N-(4-chloro-2-hydroxymethyl-benzyl)-1-(5-methyl-2-((tetrahydro-2H-pyran-4-yl)amino)-pyrimidin-4-yl)-1H-imidazole-4-carboxamide] |  |  |  | ≤ 50 | < 50 |
| Cc1cnc(N[C@@H]2CCOC2)nc1-n1cnc(C(=O)NCc2cccc(Cl)c2CO)c1 [Example 344, (R)-N-(3-chloro-2-(hydroxymethyl)-benzyl)-1-(5-methyl-2-((tetrahydrofuran-3-yl)amino)-pyrimidin-4-yl)-1H-imidazole-4-carboxamide] |  |  |  | ≤ 50 | < 50 |
| CNCCNC[C@@H](NC(=O)c1cn(-c2nc(NC3CCOCC3)ncc2C)cn1)c1cccc(Cl)c1 [Example 345, ((S)-N-(1-(3-chlorophenyl)-2-((2-(methylamino)ethyl)amino)ethyl)-1-(5-methyl-2-((tetrahydro-2H-pyran-4-yl)amino)-pyrimidin-4-yl)-1H-imidazole-4-carboxamide2,2,2-trifluoroacetate] |  |  |  | ≤ 50 | < 50 |
| CCC(=O)OCc1c(Cl)cccc1CNC(=O)c1cn(-c2nc(NC3CCOCC3)ncc2C)cn1 [Example 348, 2-chloro-6-((1-(5-methyl-2-((tetrahydro-2H-pyran-4-yl)amino)-pyrimidin-4-yl)-1H-imidazole-4-carboxamido)-methyl)benzyl-propionate] |  |  |  | ≤ 50 | < 50 |
